Reference: patent US20060128643A1, “Compositions containing a combination of a creatine compound and a second agent” (The General Hospital Corporation, priority 1998, published 2006)

What was measured:
[1] = test system: malonate striatal lesions; conditions: cited from earlier work; for protection against lesions in the malonate animal model: in vivo
MPTP toxicity = conditions: mice; cited from earlier work
[2] = cited from earlier work
[3] = test system: MPTP neurotoxicity (dopamine depletion); conditions: animal model of Parkinson's disease; cited from earlier work
[4] = test system: malonate induced striatal lesions; test: Malonate model of Huntington's disease: striatal lesion volume (Example 1); format: in vivo, rats
Method: Oral administration of creatine and its analogue cyclocreatine were examined to determine their ability to attenuate malonate lesions. Creatine was administered orally to rats in their feed at doses of 0.25-3.0% of the diet. Cyclocreatine was administered at 0.2-1.0%. Controls received unsupplemented otherwise identical diets. The compounds were administered for two weeks prior to the administration of malonate and then for a further week prior to sacrifice. Malonate was dissolved in distilled deionized water and the pH wad adjusted to 7.4 with 0.1 m HCl. Intrastriatal injections of 1.5 ul of malonate containing 3 μmol were made into the striatum at the level of the bregma 2.4 mm lateral to the midline and 4.5 mm ventral to the dura. Animals were sacrificed at 7 days by decapitation, and the brains were quickly removed and placed in ice cold 0.9% saline solution. Brains were sectioned at 2 mm intervals. Slices were then placed posterior side down in 2% 2,3,5-triphenyltetrazolium chloride. Slices were stained in the dark at room temperature for 30 minutes and then removed and placed in 4% paraformaldehyde, pH 7.3. Lesions, noted by pale staining, were evaluated on the posterior surface of each section using a Bioquant 4 system by an experienced histologist blinded to experimental conditions. These measurements have been validated by comparing them to measurements obtained on adjacent Nissl stain sections.

[5] = cited from earlier work; remark: listed apart in the source
[6] = rats receiving dietary 1% cyclocreatine; cited from earlier work
[7] = test system: MPTP induced dopaminergic toxicity; test: MPTP model for Parkinson's disease: striatal dopamine, DOPAC, HVA; format: in vivo, male Swiss Webster mice
Method: The effect of two representative creatine compounds, creatine and cyclocreatine, were evaluated using this model. Creatine and cyclocreatine were administered in the initial pilot experiment as 1% formulation in the feed of animals, and was administered for three weeks before MPTP treatment. MPTP was administered intraperitoneally at a dose of 15 mg/kg every 2 hours for five injections. The animals then remained on either creatine or cyclocreatine supplemented diets for 1 week before sacrifice. The mice examined were male Swiss Webster mice weighing 30-35 grams obtained from Taconic Farms. Control groups received either normal saline or MPTP hydrochloride alone. MPTP was administered in 0.1 ml of water. The MPTP was obtained from Research Biochemicals. Eight to twelve animals were examined in each group. Following sacrifice the two striata were rapidly dissected and placed in chilled 0.1 M perchloric acid. Tissue was subsequently sonicated, and aliquots were taken for protein quantification using a fluorometer assay. Dopamine, 3,4-dihydroxyphenylacetic acid (DOPAC), and homovanillic acid (HVA) were quantified by HPLC with 16 electrode electrochemical detection. Concentrations of dopamine and metabolites were expressed as nmol/mg protein. The statistical significance of differences was determined by one-way ANOVA followed by Fisher PLSDpost-hoc test to compare group means.
A dose response study was conducted where the creatine dose was 0.25%-3.0% of the diet and cyclocreatine 0.25-1.0% of the diet.

[8] = up to 1% of diet for 2 weeks or for over 4 weeks; cited from earlier work
[9] = feeding animals, e.g. 1% dietary; cited from earlier work
creatine kinase = creatine kinase (Oryctolagus cuniculus, UniProt P00563); conditions: cited from earlier work
creatine kinase, sequence (P00563 whole entry): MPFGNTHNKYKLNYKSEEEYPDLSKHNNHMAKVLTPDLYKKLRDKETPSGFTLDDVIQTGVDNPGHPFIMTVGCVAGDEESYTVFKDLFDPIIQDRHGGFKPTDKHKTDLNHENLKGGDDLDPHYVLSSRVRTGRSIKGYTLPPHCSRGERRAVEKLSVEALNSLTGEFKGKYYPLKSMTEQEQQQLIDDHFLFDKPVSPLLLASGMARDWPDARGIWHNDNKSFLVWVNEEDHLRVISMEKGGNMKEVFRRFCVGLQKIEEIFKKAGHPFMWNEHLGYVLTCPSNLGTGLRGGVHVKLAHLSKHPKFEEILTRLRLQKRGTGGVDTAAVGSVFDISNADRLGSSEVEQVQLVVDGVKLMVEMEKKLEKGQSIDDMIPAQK

[10] = test system: malonate lesions (striatal); test: Malonate striatal lesions, creatine and nicotinamide (Example 4); format: in vivo, male Sprague-Dawley rats; conditions: creatine 1% in the diet, nicotinamide 0.5% in the drinking water; malonate 3 μmol intrastriatal
Method: Studies of the neuroprotective effects of creatine and nicotinamide were carried out in 250 to 300 g male Sprague-Dawley rats. Creatine was administered orally to rats in their feed at a dose of 1% in the diet. Nicotinamide was administered orally with apple juice at a dose of 0.5% in the drinking water. Rats were treated for one week prior to intracerebral injectior˜s. Animals then remained on the control or supplemented diets for one week prior to being sacrificed. Eleven to 12 animals were examined in each experimental group. NMDA was administered at a doge of 240 nmol in 1 μl. AMPA was administered at a dose of 30 nmol in 1 μl and kainic acid was administered at dose of 5 nmol in 1 μl. Malonate was dissolved in distilled deionized water and the pH was adjusted to 7.4 with HCl. Intrastriatal injections of 3 μmol of malonate in 1.5 μl were made with a 10 μl Hamiiton syringe fitted with a 26 gauge blunt tip needle, into the left striatum at the level of the bregma, 2.4 mm lateral to the midline and 4.5 mm ventral to the dura as described previously [Matthews, R. T et al. J. Neurosci., 18 (1998) 156-163]. […] Lesions noted by pale staining were evaluated on the posterior surface of each section using a Bioquant 4 system, which calculates the volume of the lesions in each section, by an experienced histologist blinded to experimental conditions. […]

[11] = intravenous injection, up to 8 grams/day, patients with cardiac diseases; cited from earlier work
[12] = dose response study, 0.5% of the diet

COC1=C(OC)C(=O)C(C/C=C(\C)CC/C=C(\C)CC/C=C(\C)CC/C=C(\C)CC/C=C(\C)CC/C=C(\C)CC/C=C(\C)CC/C=C(\C)CC/C=C(\C)CCC=C(C)C)=C(C)C1=O [CoQ10, 2,3 dimethoxy-5 methyl-6-decaprenyl benzoquinone]
ATP depletion produced by malonate in vivo [1]: attenuated ATP depletion | protection against lesions in the malonate animal model [1]: dose dependent protection | protection against MPTP toxicity (MPTP toxicity): significantly protect | solubility in chloroform and carbon tetrachloride [2]: very soluble | solubility in water [2]: insoluble in water

CC(C)(C)[N+]([O-])=Cc1ccccc1S(=O)(=O)O [N-tert-a-(2-sulfophenyl) nitrone, reference compound]
protection against dopamine depletion [3]: effective in inhibiting moderate dopamine depletion

NC1=NCCN1CC(=O)O [cyclocreatine, 1-carboxymethyl-2-iminoimidazolidine]
neuroprotection against malonate induced striatal lesions ([4]; 1% in the diet): significant | neuroprotection against malonate induced striatal lesions, dose response ([4]; increasing doses in the diet (creatine 0.25-3%; cyclocreatine 0.2-1.0%)): dose dependent neuroprotective effects | protection against striatal malonate lesions ([4]; oral supplementation in feed, 2 weeks before and 1 week after intrastriatal malonate 3 μmol): protected against striatal malonate lesions | mortality ([5]; diet containing 1% cyclocreatine, in the presence of antibiotics): without significant mortality | growth versus control chicks ([5]; in vivo): grew more slowly | tissue uptake [6]: taken up by muscle, heart and brain | effect against MPTP induced depletions of homovanillic acid ([7]; 1% in feed, pilot experiment): effective | neuroprotection against MPTP induced dopamine depletions ([7]; 1% in feed, pilot experiment): significant neuroprotection | neuroprotective effect compared with creatine ([7]; 1% in feed, pilot experiment): greater than that seen with creatine alone | protection against DOPAC depletions induced by MPTP ([7]; 1% in feed, pilot experiment, MPTP 15 mg/kg i.p. x5): significantly protected | effects on the dopamine metabolites HVA and DOPAC ([7]; dose response study (creatine 0.25%-3.0%; cyclocreatine 0.25-1.0% of the diet)): neuroprotection effects | neuroprotection against MPTP induced dopamine depletions [7, 12]: significant protection | protection against HVA depletion [7, 12]: not seen | neuroprotection against MPTP induced dopamine depletions ([7]; dose response study, 1.0% of the diet): significant protection | gross adverse effects [8]: without gross adverse effects | accumulation in organs [9]: accumulation of cyclocreatine in different organs in mM concentrations

N=C(N)N(CC(=O)O)CC1CO1 (centres unmarked) [epoxycreatine]
inactivation of creatine kinase (creatine kinase): completely and irreversibly inactivate

NC(=O)c1cccnc1 [nicotinamide]
ATP depletion produced by malonate in vivo [1]: attenuated ATP depletion | protection against lesions in the malonate animal model [1]: dose dependent protection | neuroprotective effect against malonate lesions (striatal lesion volume) [10]: did not reach significance | protection against dopamine depletion [3]: effective in inhibiting moderate dopamine depletion

N-phosphoryl creatine [creatine phosphate]
adverse side effects [11]: no adverse side effects

isoepoxycreatine
inactivation of creatine kinase (creatine kinase): completely and irreversibly inactivate
